Assay results published in US10517889B2, “Modulators of SMAD7 expression” (Ionis Pharmaceuticals, Inc., priority 2017, dated 2019).
Strand notation (5' to 3'): a small letter for the sugar, then the base; units joined by * are phosphorothioate-linked, units joined directly phosphodiester-linked; [ ] holds rarer units or linkages, { } end groups; capitals alone tell only the bases. k = constrained ethyl (cEt); [5mC] = 5-methylcytosine; d = 2'-deoxy (DNA)

Experiments:
human SMAD7 mRNA [1] = test: Antisense inhibition of human SMAD7 mRNA expression in Hep3B cells by 3-10-3 cEt gapmers, 10,000 nM, electroporation (Example 2); format: cell-based; conditions: approximately 24 hours
How it was run: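 Percent inhibition of SMAD7 mRNA, relative to untreated cells, after ~24 h exposure of electroporated Hep3B cells to 10,000 nM cEt gapmer; levels by qRT-PCR, corrected for total RNA.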

human SMAD7 mRNA [2] = test: Dose-dependent inhibition of human SMAD7 mRNA expression in Hep3B cells, comparison with ION 28453 (Example 4); format: cell-based; conditions: electroporation, approximately 16 hours; for IC50: SMAD7 mRNA
Method: Cells were plated at a density of 20,000 cells per well and transfected using electroporation with 0.25 μM, 0.74 μM, 2.22 μM, 6.67 μM, or 20.00 μM concentrations of antisense oligonucleotide, as specified in the Tables below. After a treatment period of approximately 16 hours, RNA was isolated from the cells and SMAD7 mRNA levels were measured by quantitative real-time PCR. Primer probe set RTS5062 was used to measure human SMAD7 mRNA levels. SMAD7 mRNA levels were adjusted according to total RNA content, as measured by RIBOGREEN®. Results are presented as percent inhibition of SMAD7 mRNa expression, relative to untreated control cells.
The half maximal inhibitory concentration (IC50) of each oligonucleotide is also presented. […] Several newly designed antisense oligonucleotides had greater potency than the previously disclosed lead compound, ION 28453.

human SMAD7 mRNA [3] = test: Dose-dependent inhibition of human SMAD7 mRNA expression in Hep3B cells (Example 3, Study 1 and 2); format: cell-based; conditions: electroporation; for % inhibition of SMAD7 mRNA expression: approximately 16 hours; for IC50: Study 2 (740-20000 nM)
How it was run: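 Hep3B cells, 20,000 per well, electroporated with antisense oligonucleotide at 0.31, 1.25, 5.00 or 20.00 μM (first series) or 0.74, 2.22, 6.67 or 20.00 μM (second series). After ~16 h, SMAD7 mRNA measured by RT-qPCR (RTS5062), normalised to RIBOGREEN total RNA. Percent inhibition vs untreated cells; IC50 derived.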

[4] = Hematology assays after subcutaneous administration in CD-1 mice (Example 6); format: in vivo; set-up: RBC / Eosinophils / Monocytes: unit not given here; conditions: 50 mg/kg subcutaneous twice weekly for 7 weeks
Method: (§1) Groups of 8-9 week old male CD-1 mice were injected subcutaneously twice a week for 7 weeks with 50 mg/kg of Ionis oligonucleotides (100 mg/kg/week dose). Each group contained 4 mice. One group of male CD-1 mice was injected subcutaneously twice a week for 7 weeks with PBS. Plasma was collected for analysis on day 28.
Blood obtained from all mouse groups was measured by an ADVIA2120i hematology analyzer (Siemens, USA) for measurements of the various blood cells, as well as other hematology markers.

[5] = Organ weights after subcutaneous administration in CD-1 mice (Example 6); format: in vivo; conditions: end of study, 50 mg/kg subcutaneously twice a week for 7 weeks
Method: as §1
Ionis SMAD7 oligonucleotides that caused any changes in organ weights outside the expected range for antisense oligonucleotides were excluded from further studies.

[6] = Plasma chemistry markers after subcutaneous administration in CD-1 mice (Example 6); format: in vivo; conditions: CD-1 mice plasma at day 46; 50 mg/kg subcutaneously twice a week for 7 weeks
Method: CD-1® mice (Charles River, Mass.) are a multipurpose mice model, frequently utilized for safety and efficacy testing. The mice were treated with Ionis human SMAD7 antisense oligonucleotides selected from studies described above and evaluated.
Groups of 8-9 week old male CD-1 mice were injected subcutaneously twice a week for 7 weeks with 50 mg/kg of Ionis oligonucleotides (100 mg/kg/week dose). Each group contained 4 mice. One group of male CD-1 mice was injected subcutaneously twice a week for 7 weeks with PBS. […]

mouse Smad7 mRNA = test: Murine Smad7 mRNA expression after subcutaneous administration in BALB/c mice (Example 10); format: in vivo; conditions: 50 mg/kg subcutaneous once a week for 4 weeks, 24 hours after last dose
Method: The objective of this study was to evaluate the efficacy of Ionis SMAD7 antisense oligonucleotides compared to ION 736697/Mongersen in BALB/c mice following 4 weeks of treatment. Both ION 830025 and ION 798781 are cross-reactive with mouse Smad7 mRNA.
Groups of BALB/c mice were subcutaneously administered 50 mg/kg of Ionis SMAD7 oligonucleotides once a week for 4 weeks. Each group contained 4 mice. One group of mice was administered PBS once a week for 4 weeks. […]

[7] = SMAD7 mRNA, Hep3B cells, 10,000 nM antisense oligonucleotide, electroporation, primer probe set RTS5062, relative to untreated control cells
[8] = 740 nM, Study 2, relative to untreated control cells

Substance: 801040 (antisense kG*kT*k[5mC]*dA*dT*dG*dA*dA*dA*dG*dA*dT*dT*k[5mC]*kT*kT) [compound 801040]
- % Inhibition (human SMAD7 mRNA [1]; [7]): 72%
- % inhibition of SMAD7 mRNA expression (human SMAD7 mRNA [2]; 0.25 μM): 31%
- % inhibition of SMAD7 mRNA expression (human SMAD7 mRNA [2]; 0.74 μM): 44%
- % inhibition of SMAD7 mRNA expression (human SMAD7 mRNA [2]; 2.22 μM): 67%
- % inhibition of SMAD7 mRNA expression (human SMAD7 mRNA [2]; 6.67 μM): 63%
- % inhibition of SMAD7 mRNA expression (human SMAD7 mRNA [2]; 20.00 μM): 91%
- IC50 (human SMAD7 mRNA [2]): 1 µM
- % inhibition of SMAD7 mRNA expression (human SMAD7 mRNA [3]; [8]): 52%
- % inhibition of SMAD7 mRNA expression (human SMAD7 mRNA [3]; 2220 nM, Study 2): 55%
- % inhibition of SMAD7 mRNA expression (human SMAD7 mRNA [3]; 6670.0 nM, Study 2): 60%
- % inhibition of SMAD7 mRNA expression (human SMAD7 mRNA [3]; 20000.0 nM, Study 2): 95%
- IC50 (human SMAD7 mRNA [3]): 1 µM

Substance: 801051 (antisense kG*kT*kG*dT*dT*d[5mC]*dA*dA*d[5mC]*dA*dA*dT*dG*k[5mC]*kT*kT) [compound 801051]
- % Inhibition (human SMAD7 mRNA [1]; [7]): 68%
- % inhibition of SMAD7 mRNA expression (human SMAD7 mRNA [2]; 0.25 μM): 0%
- % inhibition of SMAD7 mRNA expression (human SMAD7 mRNA [2]; 0.74 μM): 10%
- % inhibition of SMAD7 mRNA expression (human SMAD7 mRNA [2]; 2.22 μM): 34%
- % inhibition of SMAD7 mRNA expression (human SMAD7 mRNA [2]; 6.67 μM): 62%
- % inhibition of SMAD7 mRNA expression (human SMAD7 mRNA [2]; 20.00 μM): 83%
- IC50 (human SMAD7 mRNA [2]): 4 µM
- % inhibition of SMAD7 mRNA expression (human SMAD7 mRNA [3]; [8]): 52%
- % inhibition of SMAD7 mRNA expression (human SMAD7 mRNA [3]; 2220 nM, Study 2): 62%
- % inhibition of SMAD7 mRNA expression (human SMAD7 mRNA [3]; 6670.0 nM, Study 2): 76%
- % inhibition of SMAD7 mRNA expression (human SMAD7 mRNA [3]; 20000.0 nM, Study 2): 88%
- IC50 (human SMAD7 mRNA [3]): 4 µM

Substance: 830027 (antisense kA*kA*k[5mC]*d[5mC]*dA*dT*dT*dT*dA*dT*d[5mC]*dT*dG*kG*kT*kG) [compound 830027]
- Eosinophils [4]: 1.9
- Hematocrit [4]: 44.7%
- Hemoglobin [4]: 14.7 g/dL
- Lymphocytes [4]: 64.4%
- MCH [4]: 15.1 pg
- MCHC [4]: 32.9 g/dL
- MCV [4]: 46.3 fL
- Monocytes [4]: 8.2
- Neutrophils [4]: 25.6%
- RBC [4]: 9.7
- Reticulocytes [4]: 3.4%
- WBC [4]: 8.6 10^3/μL
- platelets [4]: 1141.8 10^3/μL
- % Inhibition (human SMAD7 mRNA [1]; Hep3B cells, electroporation with 10,000 nM antisense oligonucleotide, SMAD7 mRNA by RT-PCR (RTS5062), relative to untreated control cells): 23%
- Organ weights, Kidneys [5]: 0.6 g
- Organ weights, Liver [5]: 2.6 g
- Organ weights, Spleen [5]: 0.2 g
- ALT [6]: 40 IU/L
- AST [6]: 104 IU/L
- Albumin [6]: 2.5 g/dL
- BUN [6]: 23 mg/dL

Substance: ION 736697: uniform deoxy phosphorothioate oligonucleotide GTCGCCCCTTCTCCCCGCAGC (SEQ ID NO: 2736), same sequence and chemistry as GED-0301 (Mongersen) (DNA, all phosphorothioate, methylation of C not given here) [reference compound]
- Mouse Smad7 mRNA expression (% inhibition), Colon (mouse Smad7 mRNA; colon): 3 % inhibition
- Mouse Smad7 mRNA expression (% inhibition), Duodenum (mouse Smad7 mRNA; duodenum): 0 % inhibition
- Mouse Smad7 mRNA expression (% inhibition), Ileum (mouse Smad7 mRNA; ileum): 0 % inhibition
- Mouse Smad7 mRNA expression (% inhibition), Kidney (mouse Smad7 mRNA; kidney): 9 % inhibition
- Mouse Smad7 mRNA expression (% inhibition), Liver (mouse Smad7 mRNA; liver): 6 % inhibition
